Source: ChEMBL document CHEMBL6103618, “Discovery of Novel Oxazolo[4,3-f]purine Derivatives as Antitumor Agents through PPIA Interaction” (J Med Chem, 2025)
Active and inactive are the calls of the source. No cut-off for these calls is given here.

Assays:
HCT-116 [1] = assay: Induction of cell cycle arrest in human HCT-116 cells assessed as accumulation at S phase at 1.2 uM incubated for 48 hrs by PI staining based flow cytometry (reference value: 34.55 %); type: functional
HCT-116 [2] = assay: Inhibition of cell viability in human HCT-116 cells at 0.3 to 1.2 uM incubated for 48 hrs in presence of NAC; type: functional, cell-based; conditions: dose 0.3-1.2 µM
HCT-116 [3] = assay: Induction of intracellular ROS generation in human HCT-116 cells incubated for 48 hrs by DHE staining based analysis; type: functional, cell-based; conditions: dose 0.3-1.2 µM
HCT-116 [4] = assay: Cytotoxicity against human HCT-116 cells harboring siNC assessed as inhibition of cell viability incubated for 48 hrs by CCK8 assay; type: functional, cell-based; conditions: HCT-116, 48 h
HCT-116 [5] = assay: Anti-invasion activity in human HCT-116 cells incubated for 24 hrs by transwell assay; type: functional, cell-based; conditions: dose 0.3-1.2 µM
CT26 = assay: Antitumor activity against mouse CT26 cells implanted in BALB/c mouse assessed as necrosis in tumor tissue at 15 to 45 mg/kg, ip qd treated for 14 days by H and E staining based analysis; type: functional, organism-based; conditions: dose 15-45 mg/kg, time 14.0 day
HCT-116 [6] = assay: Anti-proliferative activity against human HCT-116 cells harboring siPPIA-3 assessed as decrease in p-p38 level at 1.2 uM by Western blot analysis; type: functional, cell-based
[7] = Toxicity in BALB/c mouse implanted with mouse CT26 cells assessed as injury in liver at 15 to 45 mg/kg, ip qd treated for 14 days by H and E staining based analysis; type: organism-based; conditions: in vivo, 336 h, dose 15-45 mg/kg, time 14 day

For `C=C(C(=O)OC)N1c2nc(Cl)nc(Cl)c2N2C(c3ccccc3F)OC(C(=O)OCC)(C(=O)OCC)C12` (racemic), the Activity (HCT-116 [1]) was 28.16%, the inhibition (HCT-116 [2]) was “inactive” and the Activity (HCT-116 [3]) was “Dose-dependent-effect”. For the same compound, the IC50 (HCT-116 [4]) was 470 nM, the Activity (HCT-116 [5]) was “Dose-dependent-effect” and the Activity (CT26) was “Active”. For the same compound, the Activity (HCT-116 [6]) was “inactive” and the Activity [7] was “Non-toxic”.
